What was measured:
[1] = tested on: dextran sulfate-induced inflammatory bowel disease; assay: Dextran sulfate-induced inflammatory bowel disease in γc knock out mice (Example 14); assay type: in vivo
Procedure: To 3-week-old γc knock out mice with +/− genotypes were administered 20 μg[…] of (NAC-OMe)2 three times a week for 2 weeks. On day 16, the free drinking of 1% dextran sulfate water was started. […] The γc knock out mice and their wild-type male mice (+/Y- and −/Y) and female mice (+/+, +/− and −/−) were caused to freely drink water containing 1% dextran sulfate as a inflammatory bowel disease model.

[2] = tested on: IL-6; assay: IL-6 in culture supernatant of macrophages of NOD mice (Example 22); assay type: in vivo; conditions: oral 1 mg/0.5 ml/h/day on alternate days, five times, age 4 weeks; control group 3800 pg/ml
Procedure: (§1) The amount of IL-6 was determined using IL-6 dependent mouse hybridoma MH60 cells (J. Eur. Immunol., vol. 18, p. 951, 1988). One hundred microliters of the culture supernatant were added to 100 μl of the MH60 cell suspension adjusted to 1×10^5 cells/ml in a 10% FCS-containing RPMI medium, and the mixed solution was incubated at 37° C. for 2 days in a CO2 incubator. Subsequently, 10 μl of MTT (supplied by Sigma Co.) solution adjusted to a concentration of 5 mg/ml in the same medium were added thereto, and the reaction was conducted at 37° C. for 5 hours. After the completion of the reaction, the centrifugation was conducted. The supernatant (160 μl) was removed, and 100 μl of a mixture of hydrochloric acid and propanol were added to the residue. The suspension was conducted using a pipetman to dissolve the cells. Immediately after the dissolution, an absorbance of 570 nm was measured with an immunometer (supplied by Bio-Rad).
Through a probe, glutathione ethyl ester was orally given at 1 mg/0.5 ml/h/day to the NOD mice of age 4 weeks on alternate days, in total five times. By the same method as in Example 3, intraperitoneal cells were collected from the mice to sample intraperitoneal macrophages, which were then suspended and adjusted in a phenol red-free RPMI 1640 culture medium supplemented with 10% fetal calf serum to 3×10^6 cells/ml. […]

[3] = tested on: IL-6; assay: IL-6 in macrophage culture supernatant, advanced tumor-bearing mice (Example 4); assay type: in vivo, CDF1 mice; conditions: oral 1 mg/0.5 ml/h for 10 days, COLON 26 mice; control mice 5,200 pg/ml
Procedure: A stimulator was added to 1×10^6 MΦ, and the incubation was conducted at 37° C. for 2 days in a CO2 incubator. After centrifugation, the culture supernatant was collected.
as §1
The COLON 26 transplantable tumor was implanted subcutaneously in the back portion of CDF1 mice at a density of 5×10^5 cells/mouse. […] Glutathione ethyl ester was orally administered to the mice every day in a dosage of 1 mg/0.5 ml/h. This oral administration was continued for 10 days. […]

[4] = tested on: macrophages within the thoracic cavity of the patient suffering from sarcoidosis; assay: GSH and GSSG content by enzyme recycling method in macrophages of a sarcoidosis patient incubated with NAC (Example 5); assay type: cell-based, human; conditions: 5 mM NAC, 3 hours
From the text: The amounts of oxidative and reductive monocytes macrophages contained in monocytes preparation separated and collected in a usual manner from the peripheral blood and the thoracic cavity of the patient suffering from sarcoidosis were examined by biochemically measuring the contents of reductive glutathione (GSH) end oxidative glutathione (GSSG) by the enzyme recycling method. The peripheral blood of the healthy person was used as a control.
The peripheral blood of the healthy person and the peripheral blood of the patient suffering from sarcoidosis were collected with heparin. Or 150 ml of a physiological saline solution was injected into the bronchia of the patient using a bronchofiber, and 75 ml of bronchoalveolar lavaged fluid were recovered. Monocytes obtained by separating and purifying both of them using Ficoll-Hypaque (LYMPHOPREP) were suspended in an RPMI 1640 medium containing 10% fetal calf serum, and washed three times to obtain macrophage/monocyte preparation adherent to a glass petri dish for 30 minutes. Subsequently, a group incubated for 3 hours with the addition of 5 mM N-acetylcysteine (NAC) and a group of a medium component alone were prepared. A rubber policeman was used to recover adherent cells from the petri dish. With respect to 5×10^5 macrophages, the following examination was conducted.
The contents of reductive glutathione and oxidative glutathione were measured by the above-mentioned enzyme recycling method. […]
A 10 mM phosphate buffer (590 μl, pH 7.5) containing 0.5 mM EDTA, 100 μl of glutathione reductase (supplied by Boehlinger Mannhein) adjusted to a concentration of 6 u/ml in the same buffer, 50 μl of 4 mM NADPH (supplied by Sigma Co.) prepared with 5% NaHCO3 and 10 μl of the sample were mixed. […] The change in the absorbance of 412 nm at 37° C. over the course of time was measured using a spectrophotometer. […]

COC(=O)[C@H](CSSC[C@H](NC(C)=O)C(=O)OC)NC(C)=O [(NAC-OMe)2, N,N′-diacetylcystine dimethyl ester]
occurrence rate of the inflammatory bowel disease ([1]; +/+ mice, non-administration 80%): 60% | occurrence rate of the inflammatory bowel disease, Day 30 ([1]; +/− mice, 20 μg/h three times a week for 2 weeks, 1% dextran sulfate water from day 16, non-administration 100%): 16.6% | survival rate ([1]; +/− mice, 20 μg/h three times a week for 2 weeks, 1% dextran sulfate water, non-administration 57%): 100%

CCOC(=O)CNC(=O)[C@H](CS)NC(=O)CC[C@H](N)C(=O)O [GSH-OEt, glutathione monoethyl ester]
IL-6 in the culture supernatant of the macrophages [2]: 460 pg/mL | amount of IL-6 in macrophage culture supernatant [3]: 642 pg/mL

CC(=O)N[C@@H](CS)C(=O)O [NAC, N-acetylcysteine, reference compound]
ratio of reductive GSH [4]: exceeded 80% | content of reductive GSH ([4]; without NAC 1.45 μM): 20.45 µM | content of oxidative GSSG ([4]; without NAC 15.85 μM): 4.32 µM

Reference: US7378387B2, “Method of suppressing immune response by reducing intracellular content of glutathione in macrophages and monocytes” (Ajinomoto Co., Inc., priority 1997, dated 2008)
